Results on two compounds are retold here after patent publication EP0240874A1, “Highly resorbable preparation of hymecromone, and method for its production” (Dolorgiet GmbH & Co. KG, priority 1986, dated 1987).

The conditions of data set [1]: cold and warm water; from Beilsteins Handbuch; cited from earlier work.
Data set [2] in a line: Solubility in water. Format: physicochemical. Particulars: general statement, no test described.

With `Cc1cc(=O)oc2cc(O)ccc12` [Hymecromon, 7-Hydroxy-4-methyl-cumarin], the “Löslichkeit in kaltem und warmen Wasser” value in data set [1] is “nahezu unlöslich”.
As for `Cc1cc(=O)oc2cc(O)ccc12` [Natriumsalz], the “Löslichkeit in Wasser” value in data set [2] was “gut löslich”.
